Patent US20130296430A1, “COMPOSITIONS AND METHODS FOR TREATING AUTISM AND AUTISM SPECTRUM DISORDER” (priority 2012, published 2013)

What was measured:
children with autism [1] = experiment: 12-week placebo-controlled study of NAC: Social Responsiveness Scale (SRS); type: in vivo, human
Text: The Social Responsiveness Scale (SRS) (Constantino, J. et al., J Dev Behav Pediatr, 21:2-11 (2000); Constantino, J. et al., J Autism Dev Disord., 3:427-433 (2003)) is a norm-referenced, 65-item parent report questionnaire developed to measure social behaviors, including social awareness, social information processing, reciprocal social communication, and social anxiety, in both clinical and non-clinical populations. It is designed for use with children ages 4 through 18, and more recently, a special version of the SRS has been developed for preschoolers (Pine, E. et al., Autism, 10:344-352 (2006)). The SRS items measure the Autistic Spectrum Disorder (ASD) symptoms in the domains of social awareness, social information processing, reciprocal social communication, social anxiety/avoidance, and stereotypic behavior/restricted interests. Each item is scored from 1 (not true) to 4 (almost always true). Scores are obtained for five treatment subscales: Social Awareness (e.g., “Is aware of what others are thinking or feeling”), Social Cognition (e.g., “Doesn't recognize when others are trying to take advantage of him or her”), Social Communication (e.g., “Avoids eye contact or has unusual eye contact”), Social Motivation (e.g., “Would rather be alone than with others”), and Autistic Mannerisms (e.g., “Has an unusually narrow range of interests”). The SRS summary score was continuously distributed within each group and minimally correlated with Intelligent Quotient (IQ). High scores indicate more severe behavioral symptoms.
A 12-week, double-blind randomized, placebo-controlled study of NAC in children with autism was conducted in the Autism & Developmental Disabilities Clinic in the Division of Child & Adolescent Psychiatry at Stanford University Medical Center. The recruitment period started in March 2009 and ended in September 2010. Subjects with and without mental retardation were included. After obtaining informed consent, subjects were screened and inclusion and exclusion criteria were assessed. No changes in eligibility criteria were applied throughout the study. This investigation was approved by the institutional review board at Stanford University School of Medicine. An investigational new drug application (IND#100905) was filed with the Food and Drug Administration, and the study was registered in National Institutes of Health at ClinicalTrials.gov (identifier number NCT00627705).
(§1) After the screening phase, baseline measures were obtained from subjects continuing to meet inclusion and exclusion criteria. Subjects were then randomized to either placebo or active based on age and gender. As NAC is a nutritional supplement, the quality control is predictably variable and therefore purity is not as stringent as prescription medications. Therefore, in the present study, the stability of the compound was ascertained and the integrity of the active agent was protected by packaging each NAC doses in individual pockets. The active compound and matching placebo were provided by BioAdvantex Pharma, Inc. (Mississauga, Ontario, Canada). […] Subjects randomized to the active drug were initiated at the dose of 900 mg every day for the first 4 weeks, then 900 mg twice daily for 4 weeks and 900 mg three times daily for 4 weeks. (This dose selection was based on previously published studies for other psychiatric conditions (Grant, J. et al., Arch Gen Psychiatry, 66:468-475 (2009); Berk, M. et al., Biol Psychiatry, 64:361-368 (2008); Berk, M. et al., Bio Psychiatry, 64:468-475 (2008)) and the previous experience of our group in studies of children with cystic fibrosis). Alternatively, subjects were initiated at the dose of 900 mg per day, 1,800 mg per day, or 2,700 mg per day of NAC. Alternatively, the subjects were initiated at the dose ranging from 900 mg per day to 2,700 mg per day of NAC.
If a subject could not tolerate a specific dose, s/he would be maintained at the highest tolerated dose. […]

children with autism [2] = experiment: 12-week placebo-controlled study of NAC: safety evaluation, adverse events (DOTES); type: in vivo, human
Text: Primary behavioral outcome measures, include, for example, but are not limited to, (a) the Aberrant Behavior Checklist (ABC) irritability subscale; and (b) Dosage Record and Treatment Emergent Symptom Scale (DOTES), which provides information on the presence, frequency and severity of side effects (Guy, W., ECDEU Assessment Manual for Psychopharmacology, Rockville, Md., U.S. Department of Health, Education, and Welfare (1976)). Secondary behavioral outcome measures include, but are not limited to, (a) the Clinical Global Impression (CGI); (b) ABC-Stereotypy subscale; (c) Repetitive Behavior Scale (RBS); and (d) Social responsiveness scale (SRS).
as §1
If a subject could not tolerate a specific dose, s/he would be maintained at the highest tolerated dose. Subjects were evaluated at baseline, week 4, week 8 and week 12. The Aberrant Behavioral Checklist (ABC) (Aman, M. et al., Am J Ment Defic. 89:492-502 (1985)), the Clinical Global Impressions (CGI) (Guy, W., ECDEU Assessment Manual for Psychopharmacology, Rockville, Md., U.S. Department of Health, Education, and Welfare (1976)), and the Dosage Record and Treatment Emergent Symptom Scale (DOTES) (Guy, W., 1976, ECDEU Assessment Manual for Psychopharmacology, Rockville, Md., U.S. Department of Health, Education, and Welfare) were obtained in each visit. Additional secondary measures were obtained at baseline and at week 12 and included the social responsiveness scale (SRS) (Constantino, J. et al., J. Dev Behav Pediatr., 21:2-11 (2000); Constantino, J. et al., J Autism Dev Disord., 33:427-433 (2003)), and the repetitive behavior scale-revised (RBS-R) (Bodfish, J. et al., The Repetitive Behavior Scale: A test manual (1998)).
The following adverse events (AEs) were more frequently reported in the NAC group than the placebo group, but differences were not statistically different (all p>0.100): depressed affect (1 vs. 0), akathisia (1 vs. 0), constipation (3 vs. 2), nausea/vomiting (6 vs. 3), increased appetite (2 vs. 0), diarrhea (3 vs. 1). The following AEs were reported more in the placebo group than the NAC group: excitement/agitation (3 vs. 2), increased motor activity (3 vs. 2), nasal congestion (6 vs. 4), decreased appetite (3 vs. 2), tremor (1 vs. 0), sweating (1 vs. 0), syncope/dizziness (1 vs. 0), increased salivation (2 vs. 0). One subject in each group reported insomnia and stomachache.

[3] = NAC group, same in placebo group

Question: For `CC(=O)N[C@@H](CS)C(=O)O` [NAC, N-acetylcysteine], which “SRS total, Mean (SD)” value (children with autism [1]; Baseline (before treatment), NAC group n = 15) is on record?
Answer: 111.9 (28.3)

Question: And the “SRS total, Mean (SD)” value (children with autism [1]; Week 12, NAC n = 14)?
Answer: 93.8 (26.7)

Question: What about the “SRS-Total raw scores, treatment effect” value (children with autism [1]; all randomized participants, NAC vs placebo, p=0.141) of the same molecule?
Answer: did not significantly influence

Question: What about the “SRS-Social Cognition sub-scale, treatment effect” value (children with autism [1]; all randomized participants, p=0.037, said to appear due to regression to the mean) of the same molecule?
Answer: significant improvements

Question: And the “SRS-Autism Mannerisms sub-scale, treatment effect” value (children with autism [1]; all randomized participants, p=0.045)?
Answer: significant improvements

Question: What about the “any other SRS subscale, treatment effect” value (children with autism [1]; all randomized participants, p>0.100) of the same molecule?
Answer: no significant treatment effects

Question: And the “SRS-Total scores, treatment effect” value (children with autism [1]; participants who completed the study (NAC N=13, placebo N=12), p=0.039)?
Answer: significantly improved

Question: What about the “SRS total, Cohen's d” value (children with autism [1]; standardized mean difference NAC vs placebo at Week 12) of the same molecule?
Answer: .14

Question: And the “side effects observed, overall” value (children with autism [2]; 12-week study, up to 900 mg three times daily)?
Answer: Minimal side effects

Question: What about the “adverse event reported: akathisia (count)” value (children with autism [2]; NAC group, placebo 0, p>0.100) of the same molecule?
Answer: 1

Question: What about the “adverse event reported: depressed affect (count)” value (children with autism [2]; NAC group, placebo 0, p>0.100) of the same molecule?
Answer: 1

Question: What about the “adverse event reported: increased appetite (count)” value (children with autism [2]; NAC group, placebo 0, p>0.100) of the same molecule?
Answer: 2

Question: And the “adverse event reported: sweating (count)” value (children with autism [2]; NAC group, placebo 1)?
Answer: 0

Question: And the “adverse event reported: syncope/dizziness (count)” value (children with autism [2]; NAC group, placebo 1)?
Answer: 0

Question: And the “adverse event reported: tremor (count)” value (children with autism [2]; NAC group, placebo 1)?
Answer: 0

Question: What about the “adverse event reported: diarrhea (count)” value (children with autism [2]; NAC group, placebo 1, p>0.100) of the same molecule?
Answer: 3

Question: And the “adverse event reported: increased salivation (count)” value (children with autism [2]; NAC group, placebo 2)?
Answer: 0

Question: And the “adverse event reported: constipation (count)” value (children with autism [2]; NAC group, placebo 2, p>0.100)?
Answer: 3

Question: What about the “adverse event reported: decreased appetite (count)” value (children with autism [2]; NAC group, placebo 3) of the same molecule?
Answer: 2

Question: And the “adverse event reported: excitement/agitation (count)” value (children with autism [2]; NAC group, placebo 3)?
Answer: 2

Question: And the “adverse event reported: increased motor activity (count)” value (children with autism [2]; NAC group, placebo 3)?
Answer: 2

Question: What about the “adverse event reported: nausea/vomiting (count)” value (children with autism [2]; NAC group, placebo 3, p>0.100) of the same molecule?
Answer: 6

Question: What about the “adverse event reported: nasal congestion (count)” value (children with autism [2]; NAC group, placebo 6) of the same molecule?
Answer: 4

Question: What about the “adverse event reported: insomnia (subjects)” value (children with autism [2]; [3]) of the same molecule?
Answer: One

Question: What about the “adverse event reported: stomachache (subjects)” value (children with autism [2]; [3]) of the same molecule?
Answer: One

Question: What about the “subjects with worsening of baseline agitation and irritability requiring early termination” value (children with autism [2]; active group, later medical evaluation revealed severe constipation) of the same molecule?
Answer: one
